Tests used:
Assay in all cases: intrinsic fluorescence quenching titration
Assay type in all cases: binding
COMMD1 [1] = biological target: COMMD1 (Homo sapiens, UniProt Q8N668, T174M)
COMMD1 [2] = biological target: COMMD1 (Homo sapiens, UniProt Q8N668, K167E/K173E)
COMMD1 [3] = biological target: COMMD1 (Homo sapiens, UniProt Q8N668)
Chain of COMMD1 (Homo sapiens, UniProt Q8N668) (Q8N668 whole entry): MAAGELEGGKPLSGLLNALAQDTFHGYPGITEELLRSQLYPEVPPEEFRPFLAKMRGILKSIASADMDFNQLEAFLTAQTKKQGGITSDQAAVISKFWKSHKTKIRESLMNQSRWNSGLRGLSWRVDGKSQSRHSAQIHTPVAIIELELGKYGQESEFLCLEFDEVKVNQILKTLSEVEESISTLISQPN

Chain of COMMD1 (Homo sapiens, UniProt Q8N668, K167E/K173E) (Q8N668 whole entry K167E/K173E): as the sequence (Q8N668 whole entry) above, with K167E, K173E counted along it
Chain of COMMD1 (Homo sapiens, UniProt Q8N668, T174M) (Q8N668 whole entry T174M): as the sequence (Q8N668 whole entry) above, with T174M counted along it

Compound `CCCCCC(=O)OC[C@H](COP(=O)(O)O[C@@H]1[C@H](O)[C@H](O)[C@@H](OP(=O)(O)O)[C@H](OP(=O)(O)O)[C@H]1O)OC(=O)CCCCC` [PtdIns(4,5)P2] has a Kd (COMMD1 [1]) of 62.5 nM, a Kd (COMMD1 [2]) of 284 nM and a Kd (COMMD1 [3]) of 40.4 nM.

From paper doi:10.1101/572578v1 (biorxiv, 2019)
